Experimental data published in patent US8466311B2, “Neuroprotective compositions and methods” (Sanford-Burnham Medical Research Institute, priority 2006, dated 2013).

Experiments:
Keap1 = target: T1, Keap1 (Mus musculus, UniProt Q9Z2X8); test: Binding of CAB/CA to Keap1 and Keap1 deletion mutants (streptavidin precipitation); details: PC12h cells transfected with Keap1 (non-HA-tagged)
T1 construct: expressed in transfected cells; host or cells: COS7 cells
Procedure: (3) Expression vectors for HA-tagged Keap1 and Keap1 deletion mutants. These constructs were obtained from Dr. Akira Kobayashi of Tohoku University (Hosoya et al., J. Biol. Chem. 29:27244-27250, 2006; Kobayashi et al., Mol. Cell. Biol. 26:221-229, 2006).
Immunoprecipitation with agarose-immobilized streptavidin or antibody. PC12h cells (CAB- or vehicle-treated) were lysed in RIPA buffer supplemented with protease inhibitor cocktail. The lysates were centrifuged at 15,000 rpm for 10 min at 4° C., after which the supernatants were incubated with agarose-immobilized streptavidin at 4° C. for 1 h. Alternatively, for immunoprecipitation with anti-Keap1, the cell lysates were incubated with the antibody at 4° C. overnight, after which protein A immobilized on Sepharose CL-4B was added and incubation continued at 4° C. for 1 h. Then, the complexes were washed three times with rinse buffer (150 mM NaCl, 50 mM Tris-HCl [pH 7.5], 0.1% NP-40, 1 mM EDTA, and 0.02% NaN3). SDS sample buffer was added, the mixture was boiled for 5 min, and the supernatants were subjected to SDS-PAGE. Immunoblotting was then performed as described above.
CA activates the Keap1/Nrf2/ARE pathway. […] The initial reaction in this activation cascade is the binding of an electrophilic compound to specific cysteines on Keap1 protein (Hong et al., Chem. Res. Toxicol. 18: 1917-1926, 2005; Eggler et al., Proc. Nat. Acad. Sci. USA 102:10070-10075, 2005; Zhang et al., Mol. Cell. Biol. 10941-10953, 2004). Such binding initiates a cellular transcription pathway leading to induction of phase 2 enzymes (Talalay, Biofactors 12:5-11, 2000; Padmanabham et al., Mol. Cell 21:689-700, 2006; Itoh et al., Free Radic. Biol. Med. 36:1208-1213, 2004). Therefore, we examined the domains of Keap1 (designated BTB, IVR, and DGR) to determine those essential for binding to CA. Accordingly, for co-immunoprecipitation experiments, we transfected COS7 cells with DNA expressing either HA-tagged wild type Keap1 protein (HA-WT Keap1) or various deletion mutants of tagged Keap1 protein (HA-ΔBTB Keap1, HA-ΔIVR Keap1, and HA-ΔDGR Keap1). The transfected COS7 cells were then treated with vehicle or 10 μM CAB and lysed. We quantified the expression level of Keap1 protein in total cell lysates with anti-HA antibody. Each Keap1 mutant protein was expressed at a similar level of the predicted molecular weight (57 kDa for HA-ΔBTB Keap1, 53 kDa for HA-ΔIVR Keap1, and 37 kDa for HA-ΔDGR Keap1). Next, in order to detect Keap1/CAB complexes, we immunoprecipitated cell lysates with streptavidin and probed with anti-HA antibody. […] The requirement of the BTB domain for CA binding is in accord with prior results (Hong et al., Chem. Res. Toxicol. 18:1917-1926, 2005; Eggler et al., Proc. Nat. Acad. Sci. USA 102:10070-10075, 2005; Zhang et al., Mol. Cell. Biol. 24:10941-10953, 2004).
After binding of the electrophilic quinone-form of CA to Keap1 protein, activation of the Keap1/Nrf2 pathway requires nuclear translocation of Nrf2 (Talalay, Biofactors 12:5-11, 2000; Padmanabham et al., Mol. Cell 21:689-700, 2006; Itoh et al., Free Radic. Biol. Med. 36:1208-1213, 2004). Thus, we next examined the intracellular distribution of Nrf2 protein in COS7 cells by immunofluorescence.

HO-1 promoter = HO-1 promoter luciferase reporter (pHO15luc) in HT22 cells; type: cell-based, mouse
Procedure: Cell cultures, transfection, and glutathione (GSH) measurement. […] Transfection was performed with Lipofectamine 2000 (Invitrogen). In the reporter gene assays, firefly luciferase activity in cell lysates was measured with a luminometer (Promega). Total GSH (reduced and oxidized) was determined as described (Lee et al., Biochem. Biophys. Res. Commun. 280:286-292, 2001).
NEPPs activate HO-1 transcription through the ARE. We next studied activation of the HO-1 promoter and ARE by NEPP. In order to examine the induction of HO-1 protein by NEPP11, various concentrations of NEPP11 were added to HT22 cells for 24 h. Thereafter, cell lysates (10 μg per lane) were subjected to SDS-PAGE and probed with anti-HO-1 or anti-β-actin. […] Next, we studied transcriptional activation of the HO-1 gene by NEPP11 in HT22 cells, a differentiated neuronal cell line, transfected with pHO15luc, a luciferase reporter construct under the control of a 15-kb mouse HO-1 promoter fragment. HT22 cells were transfected with reporter cDNAs (1 μg per well), and various concentrations of NEPP11 were added to the cultures. After a 24-h incubation, cell lysates were subjected to luciferase reporter assays. […] Gong et al. (Antioxid. Redox Signal. 4:249-257, 2002) had identified two enhancer regions, E1 and E2, located upstream of the transcriptin initiation site by approximately 4 and 10 kb that contained the elements responsible for activation by 15-deoxy-Δ^12,14-PGJ2 (Gong et al., Antioxid. Redox Signal. 4:249-257, 2002). To determine the role of the E1 and E2 enhancers, we expressed a mutant promoter construct lacking both enhancer sites [pHO15lucΔ(E1+E2)]. The mutant was only minimally responsive to NEPP11 (1.8-fold induction).
Because the E1 and E2 regions also contain other enhancer elements, we tested the effects of NEPP11 (2 μM) on the expression of luciferase activity derived from these elements, including the cAMP-responsive element (CRE; p3xCREluc), AP-1 binding site (p3xAP1luc), NF-κB binding site (p3xNF-κBluc), NFAT-binding site (p3xNFATluc), ETS-binding site (p3xETSluc), and MEF2-binding site (p3xMEF2luc).

T1 sequence (Q9Z2X8 whole entry): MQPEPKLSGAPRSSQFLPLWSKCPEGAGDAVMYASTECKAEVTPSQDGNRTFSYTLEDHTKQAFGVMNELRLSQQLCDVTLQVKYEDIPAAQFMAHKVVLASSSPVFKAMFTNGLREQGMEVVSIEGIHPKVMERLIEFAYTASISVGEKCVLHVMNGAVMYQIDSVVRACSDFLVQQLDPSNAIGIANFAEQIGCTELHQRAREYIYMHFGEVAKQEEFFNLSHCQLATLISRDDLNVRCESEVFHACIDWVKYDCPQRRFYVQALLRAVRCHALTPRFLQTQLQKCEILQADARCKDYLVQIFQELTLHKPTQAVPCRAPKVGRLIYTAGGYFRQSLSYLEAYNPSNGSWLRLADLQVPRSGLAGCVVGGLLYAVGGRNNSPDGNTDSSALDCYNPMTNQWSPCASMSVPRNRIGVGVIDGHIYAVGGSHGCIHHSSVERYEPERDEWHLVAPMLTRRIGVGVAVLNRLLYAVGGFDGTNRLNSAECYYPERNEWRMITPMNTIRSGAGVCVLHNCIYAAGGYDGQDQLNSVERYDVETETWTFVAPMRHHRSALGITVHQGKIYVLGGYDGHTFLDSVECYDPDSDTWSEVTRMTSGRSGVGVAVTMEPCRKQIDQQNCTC

| SMILES | complex formation with Keap1 (Keap1) | expression of HO-1 transcription (pHO15luc luciferase activity) (HO-1 promoter; HT22 cells, 24 h, dose-dependent) | induction of mutant promoter pHO15lucΔ(E1+E2) (HO-1 promoter; HT22 cells, construct lacking E1 and E2 enhancers) [fold] | induction of pHO15luc reporter activity (HO-1 promoter; NEPP11 2 μM, used for comparison) | activation of pHO15luc with co-transfection of pKeap1(C151S) (HO-1 promoter; not depressed by wild-type pKeap1) |
| --- | --- | --- | --- | --- | --- |
| CC(C)c1cc2c(c(O)c1O)[C@@]1(C(=O)O)CCCC(C)(C)[C@@H]1CC2 [CA, carnosic acid] | formed CA/Keap1 complexes |  |  |  |  |
| COC(=O)CCCCC/C=C1/C(=O)C=C[C@H]1CCCCCCc1ccc(C)cc1 [NEPP11] |  | more than five-fold | 1.8 | greater than five-fold | significantly depressed |
